Data: ChEMBL document CHEMBL1150612, “Naturally occurring cembranes from an Australian sarcophyton species” (J Nat Prod, 2002)
The source made the active and inactive calls. The rule behind the calls is not given here.

Columns and labels:
Adenosine receptor A1 = target: T1, Adenosine receptor A1 (Rattus norvegicus, UniProt P25099); test: Displacement of [3H]DPCPX from rat brain adenosine A1 receptor
T1 sequence (P25099 whole entry): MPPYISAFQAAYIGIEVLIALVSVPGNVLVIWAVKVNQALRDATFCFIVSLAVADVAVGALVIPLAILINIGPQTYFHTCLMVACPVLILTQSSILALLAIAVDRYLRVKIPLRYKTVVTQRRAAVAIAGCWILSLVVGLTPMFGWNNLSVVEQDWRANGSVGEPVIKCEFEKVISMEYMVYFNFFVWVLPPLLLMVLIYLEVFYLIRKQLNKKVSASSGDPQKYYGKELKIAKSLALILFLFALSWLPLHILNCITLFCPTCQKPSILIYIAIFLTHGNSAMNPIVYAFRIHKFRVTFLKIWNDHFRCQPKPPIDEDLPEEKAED

[1] = target: T2, Adenosine receptor A1 (Rattus norvegicus) (UniProt P25099); test: Displacement of [3H]DPCPX from rat brain adenosine A1 receptor up to […]
T2 sequence (whole entry): T1 sequence (P25099 whole entry)

| IC50 (Adenosine receptor A1) [µM] | Activity [1] | SMILES |
| --- | --- | --- |
| 300 |  | CC(C)[C@H]1/C=C/[C@](C)(O)C/C=C/[C@@](C)(O)CC[C@@H]2O[C@@]2(C)CC1 |
|  | inactive | C=C1CC[C@@H]2O[C@@]2(C)CC[C@@H](C(C)C)/C=C/[C@](C)(O)CC[C@H]1O |
|  | inactive | C=C1CC[C@@H]2O[C@@]2(C)CC[C@@H](C(C)C)/C=C/[C@](C)(O)CC[C@@H]1O |
| 300 |  | CC(C)[C@H]1/C=C/[C@](C)(O)C/C=C/[C@](C)(O)CC[C@@H]2O[C@@]2(C)CC1 |
